From patent US7456172B2, “Succinoylamino benzodiazepines as inhibitors of Aβ protein production” (Bristol-Myers Squibb Pharma Company, priority 1998, dated 2008)
Counter-ions that a name gives are not always drawn.

melting point | SMILES
266.6 to 267.8 °C | C=CC[C@H](C(N)=O)[C@@H](CC(C)C)C(=O)NC1N=C(N(C)c2ccccc2)c2ccccc2N(C)C1=O (stereo partly drawn) [Example 21, (2R,3S) N1-[1,3-dihydro-1-methyl-2-oxo-5-(N-methyl-N-phenylamino)-2H-1,4-benzodiazepin-3-yl]-2-(2-methylpropyl)-3-allyl-butanediamide]
231 to 238 °C | C=CC[C@H](C(N)=O)[C@@H](CC(C)C)C(=O)NC1N=C(N2CCCCC2)c2ccccc2N(C)C1=O (stereo partly drawn) [Example 22, (2R,3S) N1-[1,3-dihydro-1-methyl-2-oxo-5-(N-piperidinyl)-2H-1,4-benzodiazepin-3-yl]-2-(2-methylpropyl)-3-allyl-butanediamide]
232 to 237 °C | C=CC[C@H](C(N)=O)[C@@H](CC(C)C)C(=O)NC1N=C(N2CCCCCC2)c2ccccc2N(C)C1=O (stereo partly drawn) [Example 23, (2R,3S) N1-[1,3-dihydro-1-methyl-2-oxo-5-(N-homopiperidinyl)-2H-1,4-benzodiazepin-3-yl]-2-(2-methylpropyl)-3-allyl-butanediamide]
137 to 145 °C | C=CC[C@H](C(N)=O)[C@@H](CC(C)C)C(=O)NC1C(=O)N(C)c2ccccc2-c2ccccc21 (stereo partly drawn) [Example 47, (2R,3S) N1-[6,7-dihydro-5-methyl-6-oxo-5H-dibenz[b,d]azepin-7-yl]-2-(2-methylpropyl)-3-allyl-butanediamide]

The remaining lines, values behind:

SMILES | melting point
C=CC[C@H](C(N)=O)[C@@H](CC(C)C)C(=O)NC1N=C(c2cccc(OC)c2)c2ccccc2N(C)C1=O (stereo partly shown) | 225 to 230 °C
C=CC[C@H](C(N)=O)[C@@H](CC(C)C)C(=O)NC1N=C(c2ccccc2)c2cc(OC)ccc2N(C)C1=O (stereo partly shown) | 244 to 255 °C
C=CC[C@H](C(N)=O)[C@@H](CC(C)C)C(=O)NC1N=C(c2cccnc2)c2ccccc2N(C)C1=O (stereo partly shown) | 251 to 253 °C
CC(C)C[C@@H](C(=O)N[C@H]1N=C(c2ccccc2)c2ccccc2N(C)C1=O)[C@@H](CC1CC1)C(N)=O (as salt: succinate) | 146 to 148 °C
C=CC[C@H](C(N)=O)[C@@H](CC(C)C)C(=O)NC1N=C(N2CCOCC2)c2ccccc2N(C)C1=O (stereo partly drawn) [Example 19, (2R,3S) N1-[1,3-dihydro-1-methyl-2-oxo-5-(N-morpholino)-2H-1,4-benzodiazepin-3-yl]-2-(2-methylpropyl)-3-allyl-butanediamide] | 145 to 151 °C
C=CC[C@H](C(N)=O)[C@@H](CC(C)C)C(=O)NC1N=C(N(C)C)c2ccccc2N(C)C1=O (stereo partly drawn) [Example 20, (2R,3S) N1-[1,3-dihydro-1-methyl-2-oxo-5-(dimethylamino)-2H-1,4-benzodiazepin-3-yl]-2-(2-methylpropyl)-3-allyl-butanediamide] | 230 to 232 °C
